From patent publication US9334280B2, “Synthetic rigidin analogues as anticancer agents, salts, solvates and prodrugs thereof, and method of producing same” (New Mexico Technical Research Foundation, priority 2012, dated 2016)

Legend:
HeLa cells = experiment: Flow cytometric cell cycle analysis (Vybrant Orange); format: cell-based, human; conditions: 24 h
Method: To assess the effects of the analogues on the cell cycle, cell cycle analysis was performed. 70-80% confluent HeLa cells were trypsinized and seeded at an initial density of 2×10^5 cell per well into 6 well plates in DMEM supplemented with 10% FBS, 100 mg/L penicillin G and 100 mg/L streptomycin. The cells were allowed to adhere overnight and before treatment with compounds of Formula I at concentrations ranging from 0.1 to 10 microM. After 24 hrs, the cells were washed 3× with DMEM, trypsinized, pelleted, and re-suspended in 200 microL of culture medium containing 10 microM (2 microL/mL) vybrant orange dye. The samples in the labeling solution were transferred into Falcon tubes and incubated in a water bath for 30 mins at 37° C. The samples were then analyzed using a Becton Dickinson FACscan flow cytometer with CellQuest software. A 488 nm laser was utilized using parameters that can be found in Appendix B; 10,000 events were collected for analysis. Cells treated with 0.1% DMSO were used as a negative control and cells treated with colchicine were used as a positive control.
In further anticancer evaluation of compounds of Formula I cell cycle analysis was performed using the cell permeable DNA binding dye Vybrant Orange. In a normal population, cells are distributed among the three major phases of the cell cycle, G0/G1 in which there is one set of paired chromosomes per cell (2n), followed by the S or synthesis phase in which DNA is synthesized in preparation for division (there is a variable amount of DNA present during this phase) and finally G2/M phase in which the chromosomes of each cell have now been duplicated (4n). This DNA content can be measured using fluorescent DNA selective probes such as Vybrant Orange that produce signals that are proportional to DNA mass per cell. This dye interacts with double stranded DNA (dsDNA) in living cells and becomes fluorescent upon binding and thus can be used to track DNA content as cells progress through the various phases of the cell cycle using flow cytometry. Cell cycle analysis was performed on HeLa cells using Rig8 at various concentrations above and below the respective GI50. Since colchicine is a known antimitotic drug, it was utilized as a positive control, while HeLa cells treated with 0.1% DMSO were used as a negative control. FIG. 6 illustrates the results of this analysis using Rig 8 on HeLa cells.

[1] = test system: UM-SCC22A head and neck cancer cells; experiment: MTT antiproliferative assay, UM-SCC22A; format: cell-based; conditions: Table 1A, 48 h, read-out: Concentration required to reduce the viability of cells by 50%, UM-SCC22A
Method: To evaluate antiproliferative properties of the compounds of Formula I, mitochondrial dehydrogenase activities were measured using the MTT assay. The cell lines were prepared by trypsinizing and seeding […] cells per well into microplates. All compounds were reconstituted in dimethyl sulfoxide (DMSO) at a concentration of either 100 mM or 25 mM prior to treatment. The cells were grown for 24 hrs before treatment at concentrations ranging from 0.004 to 100 microM and incubated for 48 hrs in 200 microL media. 20 microL of MTT reagent in serum free medium (5 mg/mL) was added to each well and incubated further for 2 hrs. Media was removed and the resulting formazan crystals were re-solubilized in 100 microL of DMSO and the optical density (OD) was measured using a Thermomax Molecular Device plate reader at a wavelength of 490 nm. The experiments were performed in quadruplicate and repeated at least twice for each compound per cell line. Cells treated with 0.1% DMSO were used as a negative control, while phenyl arsine oxide (PAO) was used as a positive killing control.

`O=C(c1ccccc1)c1[nH]c2[nH]cnc(=O)c2c1-c1cc(Br)cc(Br)c1` [Rig8, 6-Benzoyl-5-(3,5-dibromophenyl)-1H-pyrrolo[2,3-d]pyrimidin-4(7H)-one] was tested. Which “% Relative DNA Content, G0/G1” value (HeLa cells; 0.1 μM) did it give?
Its value is 51.5 ± 4.3%.

And the “% Relative DNA Content, G2/M” value (HeLa cells; 0.1 μM)?
The value was 36.6 ± 4.6%.

And the “% Relative DNA Content, S” value (HeLa cells; 0.1 μM)?
Its value is 14.1 ± 3.9%.

And the “% Relative DNA Content, G0/G1” value (HeLa cells; 1 μM)?
The value was 12.7 ± 2.2%.

And the “% Relative DNA Content, G2/M” value (HeLa cells; 1 μM)?
The value was 73.4 ± 5.3%.

What about the “% Relative DNA Content, S” value (HeLa cells; 1 μM) of the same molecule?
The value was 9.7 ± 2.4%.

And the “% Relative DNA Content, G0/G1” value (HeLa cells; 10 μM)?
Its value is 5.6 ± 2.2%.

And the “% Relative DNA Content, G2/M” value (HeLa cells; 10 μM)?
The value was 85.9 ± 2.1%.

What about the “% Relative DNA Content, S” value (HeLa cells; 10 μM) of the same molecule?
Its value is 5.3 ± 2.4%.

What about the “cell cycle arrest (in words)” value (HeLa cells; 0.1-10 μM) of the same molecule?
Its value is “dose-dependent cell cycle arrest in the G2/M phase”.

And the IC50 [1]?
The IC50 was 110 nM.
